Measured values reported in ChEMBL document CHEMBL3885881, “DrugMatrix”.

Species: Rattus norvegicus
Assay: DrugMatrix - Regimen: Daily Repeat
Format: toxicity, organism-based, Sprague-Dawley
Parameters: regimen Daily Repeat, gender Male, age 6-8 weeks
Settings: in vivo, sc, 3 mg/kg, route subcutaneous, dose level Low, […]; for ABSOLUTE BASOPHIL / ABSOLUTE EOSINOPHIL / ABSOLUTE LYMPHOCYTE / ABSOLUTE MONOCYTE / ABSOLUTE SEGMENTED NEUTROPHIL / BASOPHIL / EOSINOPHIL / ERYTHROCYTE COUNT / HEMATOCRIT / HEMOGLOBIN / LEUKOCYTE COUNT / LYMPHOCYTE / MEAN CORPUSCULAR HEMOGLOBIN / MEAN CORPUSCULAR HEMOGLOBIN CONCENTRATION / MEAN CORPUSCULAR VOLUME / MONOCYTE / NEUTROPHIL / NUCLEATED RED BLOOD CELLS / PLATELET COUNT: tissue Blood; for ALANINE AMINOTRANSFERASE / ALBUMIN / ALKALINE PHOSPHATASE / ASPARTATE AMINOTRANSFERASE / BLOOD UREA NITROGEN / CARBON DIOXIDE / CHLORIDE / CHOLESTEROL / CREATINE PHOSPHOKINASE / CREATININE / GLUCOSE / LACTATE DEHYDROGENASE / LIPASE / PHOSPHORUS / POTASSIUM / SODIUM / TOTAL BILIRUBIN / TOTAL PROTEIN / URIC ACID: tissue Plasma

Clc1ccc(CO/N=C(\Cn2ccnc2)c2ccc(Cl)cc2Cl)c(Cl)c1 [OXICONAZOLE]
ABSOLUTE BASOPHIL (72 h, time 3 day): 0 CELLS/uL | ABSOLUTE EOSINOPHIL (72 h, time 3 day): 0 CELLS/uL | ABSOLUTE LYMPHOCYTE (72 h, time 3 day): 11885.67 CELLS/uL | ABSOLUTE MONOCYTE (72 h, time 3 day): 211.33 CELLS/uL | ABSOLUTE SEGMENTED NEUTROPHIL (72 h, time 3 day): 736.33 CELLS/uL | BASOPHIL (72 h, time 3 day): 0% | EOSINOPHIL (72 h, time 3 day): 0% | ERYTHROCYTE COUNT (72 h, time 3 day): 5.9 x10E6/uL | HEMATOCRIT (72 h, time 3 day): 37.23% | HEMOGLOBIN (72 h, time 3 day): 14.13 G/DL | LEUKOCYTE COUNT (72 h, time 3 day): 12.83 x10E3/uL | LYMPHOCYTE (72 h, time 3 day): 92.33% | MEAN CORPUSCULAR HEMOGLOBIN (72 h, time 3 day): 24 pg | MEAN CORPUSCULAR HEMOGLOBIN CONCENTRATION (72 h, time 3 day): 38 G/DL | MEAN CORPUSCULAR VOLUME (72 h, time 3 day): 63.17 fL | MONOCYTE (72 h, time 3 day): 1.67% | NEUTROPHIL (72 h, time 3 day): 6% | NUCLEATED RED BLOOD CELLS (72 h, time 3 day): 0 /100WBC | PLATELET COUNT (72 h, time 3 day): 1370 x10E3/uL | ALANINE AMINOTRANSFERASE (72 h, time 3 day): 44 u/L | ALBUMIN (72 h, time 3 day): 4.63 G/DL | ALKALINE PHOSPHATASE (72 h, time 3 day): 333.33 u/L | ASPARTATE AMINOTRANSFERASE (72 h, time 3 day): 101.67 u/L | BLOOD UREA NITROGEN (72 h, time 3 day): 18.33 mg/dL | CARBON DIOXIDE (72 h, time 3 day): 21.33 mmol/L | CHLORIDE (72 h, time 3 day): 96 MEQ/L | CHOLESTEROL (72 h, time 3 day): 92.67 mg/dL | CREATINE PHOSPHOKINASE (72 h, time 3 day): 602 u/L | CREATININE (72 h, time 3 day): 0.2 mg/dL | GLUCOSE (72 h, time 3 day): 137 mg/dL | LACTATE DEHYDROGENASE (72 h, time 3 day): 701 u/L | LIPASE (72 h, time 3 day): 10 u/L | PHOSPHORUS (72 h, time 3 day): 12.9 mg/dL | POTASSIUM (72 h, time 3 day): 6.82 MEQ/L | SODIUM (72 h, time 3 day): 140.17 MEQ/L | TOTAL BILIRUBIN (72 h, time 3 day): 0.17 mg/dL | TOTAL PROTEIN (72 h, time 3 day): 6.4 G/DL | URIC ACID (72 h, time 3 day): 1.77 mg/dL | ABSOLUTE BASOPHIL (120 h, time 5 day): 0 CELLS/uL | ABSOLUTE EOSINOPHIL (120 h, time 5 day): 80 CELLS/uL | ABSOLUTE LYMPHOCYTE (120 h, time 5 day): 13140 CELLS/uL | ABSOLUTE MONOCYTE (120 h, time 5 day): 187.67 CELLS/uL | ABSOLUTE SEGMENTED NEUTROPHIL (120 h, time 5 day): 1059 CELLS/uL | BASOPHIL (120 h, time 5 day): 0% | EOSINOPHIL (120 h, time 5 day): 0.67% | ERYTHROCYTE COUNT (120 h, time 5 day): 5.43 x10E6/uL | HEMATOCRIT (120 h, time 5 day): 34.63% | HEMOGLOBIN (120 h, time 5 day): 13.57 G/DL | LEUKOCYTE COUNT (120 h, time 5 day): 14.47 x10E3/uL | LYMPHOCYTE (120 h, time 5 day): 91% | MEAN CORPUSCULAR HEMOGLOBIN (120 h, time 5 day): 25 pg | MEAN CORPUSCULAR HEMOGLOBIN CONCENTRATION (120 h, time 5 day): 39.17 G/DL | MEAN CORPUSCULAR VOLUME (120 h, time 5 day): 63.83 fL | MONOCYTE (120 h, time 5 day): 1.33% | NEUTROPHIL (120 h, time 5 day): 7% | NUCLEATED RED BLOOD CELLS (120 h, time 5 day): 0 /100WBC | PLATELET COUNT (120 h, time 5 day): 1246.67 x10E3/uL | ALANINE AMINOTRANSFERASE (120 h, time 5 day): 45.67 u/L | ALBUMIN (120 h, time 5 day): 4.03 G/DL | ALKALINE PHOSPHATASE (120 h, time 5 day): 333 u/L | ASPARTATE AMINOTRANSFERASE (120 h, time 5 day): 70.33 u/L | BLOOD UREA NITROGEN (120 h, time 5 day): 14 mg/dL | CARBON DIOXIDE (120 h, time 5 day): 27.33 mmol/L | CHLORIDE (120 h, time 5 day): 101 MEQ/L | CHOLESTEROL (120 h, time 5 day): 71.33 mg/dL | CREATINE PHOSPHOKINASE (120 h, time 5 day): 209.67 u/L | CREATININE (120 h, time 5 day): 0.12 mg/dL | GLUCOSE (120 h, time 5 day): 150 mg/dL | LACTATE DEHYDROGENASE (120 h, time 5 day): 187.33 u/L | LIPASE (120 h, time 5 day): 8.67 u/L | PHOSPHORUS (120 h, time 5 day): 11 mg/dL | POTASSIUM (120 h, time 5 day): 6.62 MEQ/L | SODIUM (120 h, time 5 day): 144.57 MEQ/L | TOTAL BILIRUBIN (120 h, time 5 day): 0.23 mg/dL | TOTAL PROTEIN (120 h, time 5 day): 5.9 G/DL | URIC ACID (120 h, time 5 day): 1.23 mg/dL
